Data from patent US20200239530A1, “COMPOUNDS AND METHODS OF MODULATING PROTEIN DEGRADATION” (Vividion Therapeutics, Inc., priority 2017, published 2020).

Experiments:
[1] = biological target: T1, ABCD3 ATP-binding cassette sub-family D member 3 (Homo sapiens, UniProt P28288); experiment: Cysteine liganding, probe competition
T1 construct: Cells were resuspended in cold PBS on ice and sonicated with a probe sonicator to achieve lysis; endogenous in cells
Method: Cells were resuspended in cold PBS on ice and sonicated with a probe sonicator to achieve lysis. 200 μL of lysate containing 5 mg/ml proteome was treated with 2 μL of 100× compound stock in a 2-mL deep-well plate. The treated lysate was subsequently incubate at 25° C. for 1 hr with shaking at 600 rpm. The treated lysate was further incubated with 2 μL of 10 mM desthiobiotin iodoacetamide probe at 25° C. for 1 hr with shaking at 600 rpm. Next, the lysate was further treat with 20 μL of solution of PBS containing 11 mM MgSO4 and 2.5% Turbonuclease stock and incubated at 25° C. for 20 minutes with shaking at 600 rpm. 1.7 mL ice-cold acetone was added to each well and incubated at −20° C. for 2 hr, followed by max speed (4200 rpm) spin for 45 min. Acetone was then decanted and the plates were blotted to remove acetone. The plates were then dried in open air for 20 minutes. After drying, the plates were then covered with foil seal and stored at −80° C. overnight.
The next day, samples were re-suspended in 90 μL of solution of 9M urea, 50 mM ammonium bicarbonate and 10 mM DTT by incubating at 65C for 20 min with shaking at 1500 rpm. Next, samples were cooled to 37° C. and then 10 μL of 500 mM iodoacetamide solution (92.48 mg/ml) was added. The samples were then incubated at 37° C. for 30 min with shaking at 600 rpm. […]

[2] = biological target: T2, cysteine residue illustrated in Table 1A or Table 2A (Homo sapiens, UniProt Q9Y6I7); experiment: Competitive cysteine profiling of cell lysate with desthiobiotin iodoacetamide probe (96-well sample prep); format: binding; conditions: UniProt Q9Y6I7; KB02 100 uM
T2 construct: Cells were resuspended in cold PBS on ice and sonicated with a probe sonicator to achieve lysis; endogenous in cells
T2 sequence (Q9Y6I7 whole entry): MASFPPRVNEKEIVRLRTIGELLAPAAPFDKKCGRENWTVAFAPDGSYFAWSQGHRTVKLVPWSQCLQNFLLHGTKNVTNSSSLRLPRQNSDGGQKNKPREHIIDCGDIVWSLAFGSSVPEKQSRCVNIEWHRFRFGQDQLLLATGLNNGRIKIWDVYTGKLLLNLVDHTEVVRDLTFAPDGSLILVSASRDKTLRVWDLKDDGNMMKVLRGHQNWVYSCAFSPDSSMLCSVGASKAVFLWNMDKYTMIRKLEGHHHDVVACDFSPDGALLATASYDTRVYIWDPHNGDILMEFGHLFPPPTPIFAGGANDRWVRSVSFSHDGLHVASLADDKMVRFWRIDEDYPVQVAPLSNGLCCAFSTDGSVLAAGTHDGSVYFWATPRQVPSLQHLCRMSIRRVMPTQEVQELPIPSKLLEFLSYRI
Procedure, shortened: (§1)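 Competitive profiling: compound and lysate (5 mg/ml protein) incubated 1 h at 25 °C before a 1 h, 25 °C desthiobiotin iodoacetamide probe step. Proteins were acetone-precipitated, reduced, alkylated and trypsinized; streptavidin-captured labelled peptides were eluted for MS analysis.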

[3] = biological target: T3, B-cell lymphoma 6 protein (BCL6) (Homo sapiens, UniProt P41182); experiment: Cysteine liganding, probe competition; format: binding
T3 construct: Cells were resuspended in cold PBS on ice and sonicated with a probe sonicator to achieve lysis; endogenous in cells
Procedure, shortened: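 Read-out is loss of desthiobiotin iodoacetamide labelling at cysteines, measured on streptavidin-enriched tryptic peptides. Compound preincubation ran 1 hr at 25° C in PBS lysate holding 5 mg/ml proteome before the probe was added.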

[4] = biological target: T4, cysteine residue illustrated in Table 1A or Table 2A (Homo sapiens, UniProt P55774); experiment: Competitive cysteine profiling of cell lysate with desthiobiotin iodoacetamide probe (96-well sample prep); format: binding; conditions: UniProt P55774
T4 construct: Cells were resuspended in cold PBS on ice and sonicated with a probe sonicator to achieve lysis; endogenous in cells
T4 sequence (P55774 21-89): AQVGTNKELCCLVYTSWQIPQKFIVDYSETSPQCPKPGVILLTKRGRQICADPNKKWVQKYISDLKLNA
Procedure, shortened: as §1

[5] = biological target: T5, cysteine residue illustrated in Table 1A or Table 2A (Homo sapiens, UniProt P41002); experiment: as above; format: binding; conditions: UniProt P41002; 100 uM
T5 construct: Cells were resuspended in cold PBS on ice and sonicated with a probe sonicator to achieve lysis; endogenous in cells
T5 sequence (P41002 whole entry): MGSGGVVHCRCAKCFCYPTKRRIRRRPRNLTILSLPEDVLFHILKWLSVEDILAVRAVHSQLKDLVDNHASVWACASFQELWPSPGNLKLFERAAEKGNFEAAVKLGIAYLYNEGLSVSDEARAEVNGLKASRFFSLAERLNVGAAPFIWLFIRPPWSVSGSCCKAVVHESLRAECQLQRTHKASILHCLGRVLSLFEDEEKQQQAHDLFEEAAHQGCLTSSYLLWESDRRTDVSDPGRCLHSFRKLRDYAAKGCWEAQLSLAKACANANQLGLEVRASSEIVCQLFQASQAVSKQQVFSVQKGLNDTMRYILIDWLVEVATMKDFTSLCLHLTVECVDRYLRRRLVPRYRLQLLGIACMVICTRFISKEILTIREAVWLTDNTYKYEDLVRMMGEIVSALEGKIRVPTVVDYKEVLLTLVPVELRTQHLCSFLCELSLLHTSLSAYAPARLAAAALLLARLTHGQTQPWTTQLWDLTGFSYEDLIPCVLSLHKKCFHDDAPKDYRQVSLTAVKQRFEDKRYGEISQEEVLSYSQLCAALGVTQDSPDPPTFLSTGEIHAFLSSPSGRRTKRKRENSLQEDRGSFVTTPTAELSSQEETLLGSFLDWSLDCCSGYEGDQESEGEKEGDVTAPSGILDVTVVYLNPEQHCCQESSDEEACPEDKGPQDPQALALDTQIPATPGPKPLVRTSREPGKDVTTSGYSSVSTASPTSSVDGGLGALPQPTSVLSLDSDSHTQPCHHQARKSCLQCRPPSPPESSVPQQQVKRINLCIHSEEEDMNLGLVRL
Procedure, shortened: as §1

[6] = biological target: T6, cysteine residue illustrated in Table 1A or Table 2A (Homo sapiens, UniProt P10074); experiment: as above; format: binding; conditions: UniProt P10074; KB03 100 uM
T6 construct: Cells were resuspended in cold PBS on ice and sonicated with a probe sonicator to achieve lysis; endogenous in cells
T6 sequence (P10074 whole entry): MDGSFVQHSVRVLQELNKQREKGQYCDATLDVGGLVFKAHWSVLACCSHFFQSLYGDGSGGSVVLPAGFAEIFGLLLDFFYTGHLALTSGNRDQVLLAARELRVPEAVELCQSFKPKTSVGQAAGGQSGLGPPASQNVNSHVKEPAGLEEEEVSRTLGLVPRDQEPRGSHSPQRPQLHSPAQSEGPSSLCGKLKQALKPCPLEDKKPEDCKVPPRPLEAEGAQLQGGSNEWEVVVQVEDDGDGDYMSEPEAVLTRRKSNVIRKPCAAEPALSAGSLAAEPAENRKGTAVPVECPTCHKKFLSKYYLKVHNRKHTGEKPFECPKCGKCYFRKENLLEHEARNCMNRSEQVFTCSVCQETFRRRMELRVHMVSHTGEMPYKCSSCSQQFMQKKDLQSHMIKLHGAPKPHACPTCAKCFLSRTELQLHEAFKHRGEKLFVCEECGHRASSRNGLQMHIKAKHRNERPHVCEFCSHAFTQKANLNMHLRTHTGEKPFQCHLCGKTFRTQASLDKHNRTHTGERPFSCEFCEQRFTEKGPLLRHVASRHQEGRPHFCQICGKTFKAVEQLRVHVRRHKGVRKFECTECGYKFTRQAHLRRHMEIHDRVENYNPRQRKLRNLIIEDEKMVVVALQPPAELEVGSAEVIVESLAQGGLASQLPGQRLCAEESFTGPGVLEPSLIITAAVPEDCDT
Procedure, shortened: as §1

[7] = biological target: T7, cysteine residue illustrated in Table 1A or Table 2A (Homo sapiens, UniProt Q6FIF0); experiment: as above; format: binding; conditions: UniProt Q6FIF0; KB03 100 uM
T7 construct: Cells were resuspended in cold PBS on ice and sonicated with a probe sonicator to achieve lysis; endogenous in cells
T7 sequence (Q6FIF0 whole entry): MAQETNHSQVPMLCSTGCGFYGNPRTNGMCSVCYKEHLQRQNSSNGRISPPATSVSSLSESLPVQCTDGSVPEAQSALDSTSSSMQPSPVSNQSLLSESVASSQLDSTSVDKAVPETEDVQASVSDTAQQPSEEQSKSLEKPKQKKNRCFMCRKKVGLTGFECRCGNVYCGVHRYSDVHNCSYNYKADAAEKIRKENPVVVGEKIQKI
Procedure, shortened: as §1

[8] = biological target: T8, cysteine residue illustrated in Table 1A or Table 2A (Homo sapiens, UniProt Q13617); experiment: as above; format: binding; conditions: UniProt Q13617; 100 uM
T8 construct: Cells were resuspended in cold PBS on ice and sonicated with a probe sonicator to achieve lysis; endogenous in cells
T8 sequence (Q13617 whole entry): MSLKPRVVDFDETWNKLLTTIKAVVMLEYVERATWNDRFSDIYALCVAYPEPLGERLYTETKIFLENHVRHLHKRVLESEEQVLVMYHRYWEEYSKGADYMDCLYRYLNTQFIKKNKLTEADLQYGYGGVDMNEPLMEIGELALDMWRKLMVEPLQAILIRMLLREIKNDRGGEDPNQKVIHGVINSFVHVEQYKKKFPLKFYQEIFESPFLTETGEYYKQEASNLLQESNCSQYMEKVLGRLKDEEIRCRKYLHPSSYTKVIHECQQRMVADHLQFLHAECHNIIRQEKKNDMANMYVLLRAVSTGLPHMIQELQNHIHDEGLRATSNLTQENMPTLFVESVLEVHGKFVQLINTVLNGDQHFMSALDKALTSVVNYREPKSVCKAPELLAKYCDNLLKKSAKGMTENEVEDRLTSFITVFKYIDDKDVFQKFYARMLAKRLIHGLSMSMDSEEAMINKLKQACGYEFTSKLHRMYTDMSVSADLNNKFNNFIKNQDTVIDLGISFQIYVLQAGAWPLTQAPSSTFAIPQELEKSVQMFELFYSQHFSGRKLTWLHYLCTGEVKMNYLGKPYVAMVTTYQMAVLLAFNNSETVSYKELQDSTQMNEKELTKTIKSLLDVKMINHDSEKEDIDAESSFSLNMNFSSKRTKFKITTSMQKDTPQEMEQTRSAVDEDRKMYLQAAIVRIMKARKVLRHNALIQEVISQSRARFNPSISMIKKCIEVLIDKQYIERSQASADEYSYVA
Procedure, shortened: as §1

T1 sequence (P28288 whole entry): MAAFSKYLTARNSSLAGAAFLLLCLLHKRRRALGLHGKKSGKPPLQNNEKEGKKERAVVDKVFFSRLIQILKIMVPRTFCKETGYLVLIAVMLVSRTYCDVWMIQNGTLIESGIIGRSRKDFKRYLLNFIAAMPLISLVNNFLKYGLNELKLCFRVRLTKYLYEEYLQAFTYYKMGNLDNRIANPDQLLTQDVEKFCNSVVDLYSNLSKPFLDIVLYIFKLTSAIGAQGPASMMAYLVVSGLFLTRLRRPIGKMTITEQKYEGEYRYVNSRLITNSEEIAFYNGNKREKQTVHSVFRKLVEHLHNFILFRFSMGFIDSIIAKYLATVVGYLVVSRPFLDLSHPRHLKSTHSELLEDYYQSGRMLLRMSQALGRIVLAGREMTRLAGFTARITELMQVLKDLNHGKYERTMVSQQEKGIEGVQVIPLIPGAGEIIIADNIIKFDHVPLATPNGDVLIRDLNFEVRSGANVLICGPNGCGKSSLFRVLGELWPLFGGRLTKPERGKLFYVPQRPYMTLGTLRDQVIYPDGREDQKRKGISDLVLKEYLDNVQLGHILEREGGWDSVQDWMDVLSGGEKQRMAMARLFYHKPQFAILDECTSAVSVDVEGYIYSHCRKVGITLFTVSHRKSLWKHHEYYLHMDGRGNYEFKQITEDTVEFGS

`COc1ccc2c(c1)CCCN2C(=O)CCl` [KB02] was tested, and the Liganded ([1]; ABCD3 Res# 472, uniprot P28288) was “YES”, the Liganded ([1]; ABCD3 Res# 477, uniprot P28288) was “YES” and the “KB02_100 uM_percent_inhibition” value [2] was 5%.

With `C=CC(=O)N(c1ccccc1)c1ccc(Br)cc1` [KB05] the “KB05_100 uM_percent_inhibition” value ([3]; 100 uM) was 7%, the inhibition at 100 µM ([3]; read-out: KB05_100 uM_percent_inhibition) was 9% and the “KB05_100 uM_percent_inhibition” value ([4]; 100 uM) was 5%. For the same compound, the “KB05_500 uM_percent_inhibition” value ([4]; 500 uM) was 51% and the “KB05_100 uM_percent_inhibition” value [5] was 49%.

In the case of `O=C(CCl)Nc1cc(C(F)(F)F)cc(C(F)(F)F)c1` [KBO3], the “KB03_100 uM_percent_inhibition” value [6] is reported as 24%, the “KB03_100 uM_percent_inhibition” value [7] is reported as 8% and the “KB03_100 uM_percent_inhibition” value [8] is reported as 30%.
